Results published in article PMC11083148, “Structure–Activity Relationship Studies on Highly Functionalized Pyrazole Hydrazones and Amides as Antiproliferative and Antioxidant Agents” (International Journal of Molecular Sciences, 2024).

How the values were obtained:
OVCAR-4 = experiment: NCI screening, Ovarian Cancer; format: cell-based; details: OVCAR-4, Ovarian Cancer; 10 µM
Protocol: (§1) In addition, 11a and 17 (representative compounds of the acylhydrazone and amide series) were selected by the National Cancer Institute (NCI, Germantown, MD, USA) and tested at a fixed concentration of 10 µM against a panel of fifty-nine different cancer cell lines, including highly metastatic tumors (Table 2).

OVCAR-8 = experiment: NCI screening, Ovarian Cancer; format: cell-based; details: OVCAR-8, Ovarian Cancer; 10 µM
Protocol: as §1

SK-OV-3 = experiment: NCI screening, Ovarian Cancer; format: cell-based; details: SK-OV-3, Ovarian Cancer; 10 µM
Protocol: as §1

OVCAR-5 = experiment: NCI screening, Ovarian Cancer; format: cell-based; details: OVCAR-5, Ovarian Cancer; 10 µM
Protocol: as §1

NCI/ADR-RES = experiment: NCI screening, Ovarian Cancer; format: cell-based; details: 10 µM
Protocol: as §1

IGROV1 = experiment: NCI screening, Ovarian Cancer; format: cell-based; details: 10 µM
Protocol: as §1

SK-MEL-28 = experiment: NCI screening, Melanoma; format: cell-based; details: SK-MEL-28, Melanoma; 10 µM
Protocol: as §1

SK-MEL-2 = experiment: NCI screening, Melanoma; format: cell-based; details: SK-MEL-2, Melanoma; 10 µM
Protocol: as §1

UACC-257 = experiment: NCI screening, Melanoma; format: cell-based; details: UACC-257, Melanoma; 10 µM
Protocol: as §1

MALME-3M = experiment: NCI screening, Melanoma; format: cell-based; details: 10 µM
Protocol: as §1

UACC-62 = experiment: NCI screening, Melanoma; format: cell-based; details: UACC-62, Melanoma; 10 µM
Protocol: as §1

SK-MEL-5 = experiment: NCI screening, Melanoma; format: cell-based; details: SK-MEL-5, Melanoma; 10 µM
Protocol: as §1

DU-145 = experiment: NCI screening, Prostate Cancer; format: cell-based; details: DU-145, Prostate Cancer; 10 µM
Protocol: as §1

PC-3 = experiment: NCI screening, Prostate Cancer; format: cell-based; details: PC-3, Prostate Cancer; 10 µM
Protocol: as §1

GM-6114 = experiment: MTT assay, cytotoxicity on normal fibroblasts; format: cell-based; details: human, 48 h, 10 µM
Protocol: Pyrazole acylhydrazones 10–13 and amides 14–22 were tested by MTT assay to evaluate their antiproliferative and cytotoxicity properties against a panel of eight tumor cell lines and normal fibroblasts.
The following cell lines were used for MTT assays: SKOV-3 (ovarian adenocarcinoma, ATCC, Manassas, VA, USA); MCF-7 (breast adenocarcinoma, Biologic Bank and Cell Factory, IRCCS Policlinico San Martino, Genoa, Italy); Hep-G2 (hepatocellular carcinoma, ATCC, Manassas, VA, USA); SK-MEL28 (skin melanoma, Biologic Bank and Cell Factory, IRCCS Policlinico San Martino, Genoa, Italy), GM-6114 (embryonic human fibroblast, ATCC, Manassas, VA, USA); MDA-MB231 (breast adenocarcinoma, Biologic Bank and Cell Factory, IRCCS Policlinico San Martino, Genoa, Italy); HeLa (cervical adenocarcinoma, Biologic Bank and Cell Factory, IRCCS Policlinico San Martino, Genoa, Italy); SK-BR3 (breast andenocarcinoma, Biologic Bank and Cell Factory, IRCCS Policlinico San Martino, Genoa, Italy); A549 (lung carcinoma, Biologic Bank and Cell Factory, IRCCS Policlinico San Martino, Genoa, Italy); HUVEC (Human Umbilical Vein Endothelial Cells, ATCC, Manassas, VA, USA). All cell lines were grown in their medium with 10% FBS, 2 mM Glutamine, and 1% penstrep and incubated at 37 °C in 5% CO2 in a humidified environment. The cell lines were plated in 96-well plates at an adequate number to reach 80–90% confluence at the end of the assay. 16 h after cell plating, a 10 mM DMSO stock solution of the compounds was diluted in growth medium and added at a final working concentration of 10 μM. After 48h of incubation, a 2 mg/mL PBS solution of MTT (3-(4,5-dimethyl-2-thiazolyl)-2,5-diphenyl-2H-tetrazolium bromide) was added (30 μL/well). After 4h, the supernatant was removed, and the Formazan precipitates were dissolved in DMSO (100 μL/well). The 96-well plates were incubated for 20 min, and absorbance was measured at 570 nm using a plate reader. The results are expressed as a percentage ratio over control samples (100%) in which the cells were incubated with the same amount of DMSO but without compounds. Each value is the mean of three independent experiments run in six replicates.

A549 = experiment: MTT assay, antiproliferative activity; format: cell-based; details: Homo sapiens, 48h, read-out: Mean Growth Percentage
Procedure, shortened: (§2)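 Cells plated 16 h, then exposed to compounds at 10 μM final for 48 h at 37 °C, 5% CO2. MTT added for 4 h, formazan dissolved in DMSO, absorbance read at 570 nm; values as percent of DMSO-only control, mean of three experiments in six replicates.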

MDA-MB231 = experiment: MTT assay, antiproliferative activity; format: cell-based; details: Homo sapiens, MDA-MB-231, 48h
Procedure, shortened: as §2

SK-BR3 = experiment: MTT assay, antiproliferative activity; format: cell-based; details: Homo sapiens, SK-BR-3, 48h
Procedure, shortened: as §2

Hep-G2 = experiment: MTT assay, antiproliferative activity; format: cell-based; details: Homo sapiens, HepG2, 48h
Procedure, shortened: as §2

SMILES | Growth Percentage (%) (OVCAR-4) | Growth Percentage (%) (OVCAR-8) | Growth Percentage (%) (SK-OV-3) | Growth Percentage (%) (OVCAR-5) | Growth Percentage (%) (NCI/ADR-RES) | Growth Percentage (%) (IGROV1) | Growth Percentage (%) (SK-MEL-28) | Growth Percentage (%) (SK-MEL-2) | Growth Percentage (%) (UACC-257) | Growth Percentage (%) (MALME-3M) | Growth Percentage (%) (UACC-62) | Growth Percentage (%) (SK-MEL-5) | Growth Percentage (%) (DU-145) | Growth Percentage (%) (PC-3) | Mean Growth Percentage (GM-6114) | melting point | activity at 10 µM (A549) | Mean growth percentage at 10 µM (MDA-MB231) | Mean growth percentage at 10 µM (SK-BR3) | Mean growth percentage at 10 µM (Hep-G2)
CCOC(=O)c1c(NC(=O)C2CC2)nn(C)c1Nc1ccccc1 [compound 17, Ethyl 3-(cyclopropanecarboxamido)-1-methyl-5-(phenylamino)-1H-pyrazole-4-carboxylate] | 99.35% | 101.92% | 99.73% | 99.49% | 103.29% | 100.75% | 107.16% | 100.69% | 99.58% | 98.67% | 93.55% | 99.45% | 104.67% | 95.84% | 65.92% | 144 to 145 °C | 75.8% | 127% | 106% | 103%
COc1ccc(/C=N/NC(=O)c2c(N)nn(C)c2Nc2ccccc2)cc1 [11a, (E)-3-amino-N′-(4-methoxybenzylidene)-1-methyl-5-(phenylamino)-1H-pyrazole-4-carbohydrazide] | 87.03% | 70.80% | 49.64% | 76.88% | 32.98% | 39.64% | 57.48% | 70.70% | 56.35% | 44.75% | 23.72% | 57.21% | 76.34% | 55.90% | 69.81% | 208 to 210 °C | 60.8% | 72% | 57% | 75%
